# Results taken from ChEMBL document CHEMBL3120106, “Novel compounds lowering the cellular isoform of the human prion protein in cultured human cells” (Bioorg Med Chem, 2014).
# pEC50: −log10 of the molar value. The source made the active and inactive calls. The calls are words filed in the database; no cut-off is given here.
# Columns and labels:
# [1] = tested on: T98G; test: cells; conditions: Homo sapiens, 48 h
# [2] = Cmax in CD-1 mouse brain at 10 mg/kg, ip administered as single dose by LC/MS/MS analysis; assay type: ADME, organism-based; set-up: dose 10 mg/kg, route intraperitoneal
# [3] = Cmax in CD-1 mouse brain at 10 mg/kg, po administered via gavage as single dose by LC/MS/MS analysis; assay type: ADME, organism-based; set-up: dose 10 mg/kg, route oral
# [4] = Cmax in CD-1 mouse plasma at 10 mg/kg, po administered via gavage as single dose by LC/MS/MS analysis; assay type: ADME, organism-based; set-up: dose 10 mg/kg, route oral
# [5] = tested on: Liver microsome; test: Metabolic stability in human liver microsomes assessed as compound remaining at 1 uM after 60 mins by LC/MS/MS analysis; assay type: ADME; conditions: 1 h
# [6] = tested on: Liver microsome; test: Half life in human liver microsomes at 1 uM by LC/MS/MS analysis; assay type: ADME
# [7] = Metabolic stability in mouse liver microsomes assessed as compound remaining at 1 uM after 60 mins by LC/MS/MS analysis; assay type: ADME, Microsome; conditions: 1 h
# [8] = Half life in mouse liver microsomes at 1 uM by LC/MS/MS analysis; assay type: ADME, Microsome
# [9] = Cytotoxicity against mouse N2a-cl3 cells assessed as cell viability after 2 days by calcein AM assay; assay type: cell-based; conditions: n2a-cl3, 48 h
# [10] = Decrease in PrPc expression on mouse N2a-cl3 cell surface after 2 days by ELISA; assay type: functional, cell-based
# [11] = tested on: T98G; test: Cytotoxicity against human T98G cells assessed as decrease in cell viability after 2 days by calcein AM assay; assay type: cell-based; conditions: 48 h, read-out: LC50 (the source's name)
SMILES,pEC50 [1],Cmax [2] [nM],Cmax [3] [nM],Cmax [4] [nM],Stability [5] [%],t1/2 [6] [min],Stability [7] [%],t1/2 [8] [min],Activity [9],inhibition [10],CC50 [11] [nM]
Cc1ccn2c(-c3csc(Nc4ccc(N(C)C)cc4)n3)c(C)nc2c1,6.96,–,–,–,–,–,–,–,–,–,–
COc1ccc(Cl)cc1C(=O)N1CC(=O)Nc2ccccc21,6.19,≤ 16200,< 100,< 100,–,–,–,–,–,–,–
Cc1nc2ncccn2c1-c1csc(Nc2ccc(Cl)cc2)n1,5.61,–,–,–,–,–,–,–,–,–,–
Cc1nc2sccn2c1-c1csc(Nc2ccc(N(C)C)nc2)n1,6.66,≤ 16200,< 100,< 100,–,–,–,–,–,–,–
CCOc1ccccc1C1C(C#N)=C(N)Oc2cc(N(C)C)ccc21 (centres undefined),–,≤ 16200,< 100,< 100,1.3,9.7,0.1,1.9,–,–,–
N#Cc1c(NC(=O)CCc2cccs2)sc2c1CCCC2,6.82,≤ 16200,< 100,< 100,–,–,–,–,–,–,–
COC(=O)c1[nH]c2c(c1C)C(=O)CC(c1cccs1)C2 (centres undefined),6.39,≤ 16200,< 100,< 100,–,–,–,–,–,–,–
CCOC(=O)c1[nH]c2c(c1C)C(=O)CC(c1ccco1)C2 (centres undefined),6.17,–,–,–,–,–,–,–,Non-toxic,Active,–
O=C(Nc1ccc(I)cn1)c1cccc(F)c1,6.35,≤ 16200,< 100,< 100,–,–,–,–,–,–,–
CCOC(=O)c1[nH]c2c(c1C)C(=O)CC(c1ccccc1Cl)C2 (centres undefined),6.35,≤ 16200,< 100,< 100,–,–,–,–,–,–,–
CCc1nnc(NC(=O)c2ccoc2COc2ccccc2)s1,5.65,≤ 16200,< 100,< 100,–,–,–,–,–,–,–
COc1ccc(S(=O)(=O)N2CCOc3ccccc32)cc1,5.88,≤ 16200,< 100,< 100,0,2,0,0.7,–,–,–
COc1ccc(Cl)cc1C(=O)N1CCN(c2cccc(Cl)c2)CC1,6.77,≤ 16200,< 100,< 100,0.1,6,0.1,3,–,–,–
CCOc1ccc(Nc2nc(-c3c(C)nc4sccn34)cs2)cc1,7.52,≤ 16200,< 100,< 100,1.5,9.6,0.5,4.5,–,–,–
COc1cccc(N2CCN(C(=O)c3cc(C)ccc3OC)CC2)c1,6.57,≤ 16200,< 100,< 100,1,4.5,0,1.6,–,–,–
COc1ccc(CC(=O)NCc2ccccc2)cc1,5.50,–,–,–,–,–,–,–,–,–,> 10000
O=C(Cc1ccc(-c2ccccc2)cc1)NCc1ccccc1,6.36,≤ 16200,< 100,< 100,4.6,10.3,5.8,18.5,–,–,> 10000
CN(C)c1ccc2c(c1)OC(N)=C(C#N)C2c1ccccc1 (centres undefined),–,≤ 16200,< 100,< 100,–,–,–,–,–,–,–

SMILES,pEC50 [1],Cmax [2] [nM],Cmax [3] [nM],Cmax [4] [nM],Stability [5] [%],t1/2 [6] [min],Stability [7] [%],t1/2 [8] [min],Activity [9],inhibition [10],CC50 [11] [nM]
CC1=CC(C)(C)N(S(=O)(=O)c2ccc(C)cc2)c2cc(C)ccc21,5.42,≤ 16200,< 100,< 100,–,–,–,–,–,–,–
COc1ccccc1C(=O)N1CCN(c2ccccc2OC)CC1,5.49,≤ 16200,< 100,< 100,–,–,–,–,–,–,–
COc1ccc(Cl)cc1NS(=O)(=O)c1ccc(N2CCCC2=O)cc1,6.29,≤ 16200,< 100,< 100,–,–,–,–,–,–,–
CCN(CC)c1ccc2c(c1)OC(N)=C(C#N)C2c1ccccc1 (centres undefined),6.77,≤ 16200,< 100,< 100,–,–,–,–,–,–,–
CCOC(=O)c1[nH]c(C)c(C(=O)c2ccc(C)cc2)c1C,6.28,≤ 16200,< 100,< 100,–,–,–,–,–,–,–
CCOC(=O)c1[nH]c2c(c1C)C(=O)CC(c1ccccc1)C2 (centres undefined),6.96,≤ 16200,< 100,< 100,–,–,–,–,–,–,–
O=C(Nc1ccncc1)C1CCCN1S(=O)(=O)c1ccc2ccccc2c1 (centres undefined),5.82,≤ 16200,< 100,< 100,–,–,–,–,–,–,–
COc1cc(C(=O)c2cc(Cl)ccc2N)cc(OC)c1OC,7.05,≤ 16200,< 100,< 100,–,–,–,–,–,–,–
O=C(Cc1ccc(Cl)cc1)NCc1ccccc1,< 5.00,–,–,–,–,–,–,–,–,–,> 10000
CN(C)c1ccc2c(c1)OC(N)=C(C#N)C2c1cccc(F)c1 (centres undefined),7.52,≤ 16200,< 100,< 100,–,–,–,–,–,–,–
CN(C)c1ccc2c(c1)OC(N)=C(C#N)C2c1cccs1 (centres undefined),6.66,–,–,–,–,–,–,–,–,–,–
O=C(Cc1ccc(Br)cc1)NCc1ccccc1,5.63,–,–,–,–,–,–,–,–,–,> 10000
Cc1cc(C)c(S(=O)(=O)NCc2ccncc2)c(C)c1,5.38,≤ 16200,< 100,< 100,–,–,–,–,–,–,–
COc1cc(OC)cc(C(=O)Nc2ccc(I)cn2)c1,5.88,≤ 16200,< 100,< 100,–,–,–,–,Non-toxic,Active,–
CCOc1ccc2c(c1)C(C)=CC(C)(C)N2S(=O)(=O)c1ccc(C)cc1,6.16,≤ 16200,< 100,< 100,–,–,–,–,–,–,–
Cc1c(C(=O)OC(C)C)[nH]c2c1C(=O)CC(c1cccs1)C2 (centres undefined),6.62,≤ 16200,< 100,< 100,1.6,9.9,0.1,3.2,–,–,–
NC(=O)c1ccccc1NC(=O)c1cccnc1N1CCCCC1,5.99,≤ 16200,< 100,< 100,8.3,16.7,0,2.8,Non-toxic,Active,–
